Here are results for 11 compounds from PMC11174011, “In Vitro and Molecular Docking Evaluation of the Anticholinesterase and Antidiabetic Effects of Compounds from Terminalia macroptera Guill. & Perr. (Combretaceae)” (Molecules, 2024).

For experiment [1], the target named is α-glucosidase (fungal source from Saccharomyces cerevisiae). Kind of experiment: α-Glucosidase inhibitory assay (PNPG). To be noted: for IC50 ± SEM (α-glucosidase): Table 2, repeats Table 1, unit not given; for α-Glucosidase IC50: maximum concentration 200 µg/mL, means ± SEM of three measurements. It is filed as biochemical. Details: IC50 ± SEM (α-glucosidase): unit not given beside the values.

In experiment [2] the target is BChE (horse serum source) (Equus caballus, UniProt P81908). Kind of experiment: biochemical.
Sequence of BChE (horse serum source) (P81908 whole entry): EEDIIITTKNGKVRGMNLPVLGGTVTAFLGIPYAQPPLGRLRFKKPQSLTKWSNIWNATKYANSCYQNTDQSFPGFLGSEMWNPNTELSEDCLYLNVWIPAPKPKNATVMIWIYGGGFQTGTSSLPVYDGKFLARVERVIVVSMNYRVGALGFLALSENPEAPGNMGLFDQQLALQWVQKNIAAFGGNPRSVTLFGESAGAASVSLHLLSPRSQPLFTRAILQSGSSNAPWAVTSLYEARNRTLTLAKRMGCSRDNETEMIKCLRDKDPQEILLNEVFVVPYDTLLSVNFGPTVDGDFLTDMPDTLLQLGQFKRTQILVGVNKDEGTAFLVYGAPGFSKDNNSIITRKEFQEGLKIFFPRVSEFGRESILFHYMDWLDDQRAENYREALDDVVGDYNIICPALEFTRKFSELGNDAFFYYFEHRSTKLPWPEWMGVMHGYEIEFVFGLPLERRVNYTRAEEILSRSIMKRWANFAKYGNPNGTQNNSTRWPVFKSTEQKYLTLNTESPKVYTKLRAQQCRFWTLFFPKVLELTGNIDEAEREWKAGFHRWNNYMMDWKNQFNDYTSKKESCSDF
Description: A standard spectrophotometric method was used to measure the anticholinesterase activity using both the butyrylcholinesterase (BChE) and acetylcholinesterase (AChE) enzymes, as described elsewhere but with slight modifications [59, 60]. […] The substrates used in the AChE and BChE assays were acetylthiocholine iodide and butyrylthiocholine chloride, respectively. DTNB (5,5′-Dithio-bis(2-nitrobenzoic) acid) was used for monitoring the cholinesterase activity.
The target in experiment [3] is T1, α-amylase (porcine pancreas source) (Sus scrofa, UniProt P00690).
T1 construct: A porcine pancreas source of α-amylase (50 µL), 25 µL of the samples; from tissue; host or cells: porcine pancreas
T1 sequence (P00690 16-511): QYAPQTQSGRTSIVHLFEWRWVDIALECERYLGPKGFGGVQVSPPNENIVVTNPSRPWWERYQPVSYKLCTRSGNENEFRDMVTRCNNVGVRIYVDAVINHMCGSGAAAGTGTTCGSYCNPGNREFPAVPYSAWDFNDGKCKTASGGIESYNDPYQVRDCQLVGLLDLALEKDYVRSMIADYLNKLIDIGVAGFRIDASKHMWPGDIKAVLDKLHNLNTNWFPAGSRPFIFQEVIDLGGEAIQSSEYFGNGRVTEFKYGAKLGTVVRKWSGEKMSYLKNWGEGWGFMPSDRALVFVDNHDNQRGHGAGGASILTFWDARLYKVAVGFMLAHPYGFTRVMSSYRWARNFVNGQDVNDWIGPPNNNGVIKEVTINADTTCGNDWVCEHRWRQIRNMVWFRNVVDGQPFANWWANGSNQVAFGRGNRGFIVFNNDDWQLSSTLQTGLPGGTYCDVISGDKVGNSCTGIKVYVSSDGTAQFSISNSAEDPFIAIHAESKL
Description: α-Amylase inhibitory assay (starch iodine protocol). It is filed as biochemical.
Description: In the α-amylase inhibition assay, the starch iodine protocol was used with few changes [62, 63]. A porcine pancreas source of α-amylase (50 µL), 25 µL of the samples, 6 mM NaCl, and phosphate buffer (pH 6.9) solution were mixed in a 96-well microplate and incubated at 37 °C for 10 min. Then, 50 µL of 0.05% starch solution was added to the reaction mixture and further incubated under the same conditions, after which Lugol (100 µL) and HCl (0.1 M, 25 µL) solutions were added to complete the reaction.

Experiment [4] has as its target AChE (electric eel source) (Electrophorus electricus, UniProt O42275). Kind of experiment: biochemical.
The mark [5] stands for this setting: Table 3, repeats Table 1, unit inferred, read-out: IC50 ± SEM (Butyrylcholinesterase).
Setting [6] is: evaluated up to 100 µg/mL, means ± SEM of three measurements, read-out: BChE IC50 (converted).
Where [7] appears, read: evaluated up to 100 µg/mL, means ± SEM of three measurements, read-out: AChE IC50 (converted).
Where [8] appears, read: read-out: IC50 ± SEM (α-amylase), Table 2, repeats Table 1, unit inferred.
Setting [9] is: Table 3, repeats Table 1, unit inferred, read-out: IC50 ± SEM (Acetylcholinesterase).

SMILES strings stand for the structures. Where two headings read alike, the source gives them in different places.

Sequence of AChE (electric eel source) (O42275 24-633): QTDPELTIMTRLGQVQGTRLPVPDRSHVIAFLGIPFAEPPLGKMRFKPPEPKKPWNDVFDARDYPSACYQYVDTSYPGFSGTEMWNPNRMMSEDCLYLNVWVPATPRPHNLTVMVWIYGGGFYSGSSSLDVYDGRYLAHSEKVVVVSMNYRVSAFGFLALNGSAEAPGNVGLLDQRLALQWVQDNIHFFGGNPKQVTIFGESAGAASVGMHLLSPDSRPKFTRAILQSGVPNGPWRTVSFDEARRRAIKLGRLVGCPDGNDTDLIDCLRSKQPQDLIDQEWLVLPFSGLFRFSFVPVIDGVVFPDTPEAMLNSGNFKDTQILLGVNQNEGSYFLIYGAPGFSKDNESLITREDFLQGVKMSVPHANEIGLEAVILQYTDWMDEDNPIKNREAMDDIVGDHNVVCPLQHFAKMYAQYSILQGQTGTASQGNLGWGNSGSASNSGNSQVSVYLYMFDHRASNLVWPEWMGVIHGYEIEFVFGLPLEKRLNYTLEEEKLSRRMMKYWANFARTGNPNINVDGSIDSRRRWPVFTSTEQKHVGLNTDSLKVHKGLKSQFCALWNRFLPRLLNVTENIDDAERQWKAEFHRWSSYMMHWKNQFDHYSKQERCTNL

For orientation: IC50 means the concentration that gives 50% inhibition. Take `CC1(C)CC[C@]2(C(=O)O)CC[C@]3(C)C(=CC[C@@H]4[C@@]5(C)C[C@@H](O)[C@H](O)[C@@](C)(CO)[C@@H]5CC[C@]43C)[C@@H]2[C@@H]1O` [Compound 7, arjungenin]: the “IC50 ± SEM (α-glucosidase)” value in experiment [1] was found to be 192.17 ± 0.78. Also, in experiment [1], the “α-Glucosidase IC50” value came out at 192.17 ± 0.78 µg/mL. The half-maximal inhibitory concentration (IC50) was > 198 µM in experiment [2] (setting [5]), > 198 µM in experiment [2] (setting [6]), 369 µM in experiment [3] and 106 µM in experiment [4] (setting [7]).
`COc1c(O)cc2c(=O)oc3c(OC)c(O)cc4c(=O)oc1c2c34` [Compound 1, 3,3′-di-O-methyl ellagic acid]: the “IC50 ± SEM (α-glucosidase)” value in experiment [1] turned out to be 74.18 ± 0.29. For the same compound, in experiment [1], the “α-Glucosidase IC50” value is 74.18 ± 0.29 µg/mL. Also, the IC50 was 153 µM in experiment [2] (setting [6]), 203 µM in experiment [3] and 142 µM in experiment [4] (setting [7]).
Regarding `CC1(C)CC[C@]2(C(=O)O[C@@H]3O[C@H](CO)[C@@H](O)[C@H](O)[C@H]3O)CC[C@]3(C)C(=CC[C@@H]4[C@@]5(C)C[C@@H](O)[C@H](O)[C@@](C)(CO)[C@@H]5CC[C@]43C)[C@@H]2[C@@H]1O` [Compound 10, arjunglucoside I], in experiment [1], the “IC50 ± SEM (α-glucosidase)” value is reported as >200. In experiment [1], the “α-Glucosidase IC50” value is >200 µg/mL. The IC50 is > 150 µM in experiment [2] (setting [5]); > 150 µM in experiment [2] (setting [6]); > 300 µM in experiment [3]; > 300 µM in experiment [3] (setting [8]); 148 µM in experiment [4] (setting [7]).
With `COc1cc2c(=O)oc3c(OC)c(O[C@@H]4O[C@H](CO)[C@@H](O)[C@H](O)[C@H]4O)cc4c(=O)oc(c1OC)c2c34` [Compound 3, 3,3′,4′-tri-O-methyl ellagic acid-4-O-β-D-glucopyranoside], in experiment [1], the “IC50 ± SEM (α-glucosidase)” value was 137.51 ± 0.81. In addition, in experiment [1], the “α-Glucosidase IC50” value is 137.51 ± 0.81 µg/mL. In addition, the half-maximal inhibitory concentration (IC50) in experiment [2] (setting [6]) is 149 µM; in experiment [3], 217 µM; in experiment [4] (setting [7]), 118 µM.
In the case of `CC1(C)CCC2(C(=O)OC3OC(CO)C(O)C(O)C3O)CCC3(C)C(=CCC4C5(C)CC(O)C(O)C(C)(C)C5CCC43C)C2C1O` (stereo not drawn) [Compound 9, 24-deoxysericoside], the “IC50 ± SEM (α-glucosidase)” value in experiment [1] is listed as >200. The “α-Glucosidase IC50” value in experiment [1] is >200 µg/mL. For the same compound, the IC50 in experiment [2] (setting [5]) is > 154 µM; in experiment [2] (setting [6]) it was > 154 µM; in experiment [3], > 307 µM; in experiment [3] (setting [8]) it was > 307 µM; in experiment [4] (setting [9]), > 154 µM; in experiment [4] (setting [7]), > 154 µM.
On to `O=C(O)C1=C[C@@H](O)[C@@H](O)[C@H](O)C1` [Compound 6, shikimic acid], for which the “IC50 ± SEM (α-glucosidase)” value in experiment [1] is >200. The “α-Glucosidase IC50” value in experiment [1] is >200 µg/mL. For the same compound, the IC50 was 337 µM in experiment [2], > 1150 µM in experiment [3], > 1150 µM in experiment [3] (setting [8]) and 317 µM in experiment [4] (setting [7]).
For `COc1c(O)cc2c(=O)oc3c(OC)c(O[C@@H]4O[C@H](CO)[C@@H](O)[C@H](O)[C@H]4O)cc4c(=O)oc1c2c34` [Compound 4, 3,3′-di-O-methyl ellagic acid-4-O-β-D-glucopyranoside], the “IC50 ± SEM (α-glucosidase)” value in experiment [1] came to 97.75 ± 0.49. The “α-Glucosidase IC50” value in experiment [1] came to 97.75 ± 0.49 µg/mL. In addition, the IC50 in experiment [2] (setting [6]) was 182 µM; in experiment [3], 185 µM; in experiment [4] (setting [7]), 129 µM.
On to `CC1OC(Oc2c(-c3cc(O)c(O)c(O)c3)oc3cc(O)cc(O)c3c2=O)C(O)C(O)C1O` (stereo not drawn) [Compound 5, myricetin-3-O-rhamnoside], for which, in experiment [1], the “IC50 ± SEM (α-glucosidase)” value stood at 69.02 ± 0.65. The “α-Glucosidase IC50” value in experiment [1] is listed as 69.02 ± 0.65 µg/mL. For the same compound, the IC50 in experiment [2] was > 215 µM; in experiment [2] (read-out: IC50 ± SEM (Butyrylcholinesterase), Table 3, repeats Table 1, unit inferred), > 215 µM; in experiment [3] it was 140 µM; in experiment [4] (setting [9]), > 215 µM; in experiment [4] (setting [7]), > 215 µM.
For `CC1(C)CC[C@]2(C(=O)O)CC[C@]3(C)C(=CC[C@@H]4[C@@]5(C)C[C@@H](O)[C@H](O)[C@@](C)(CO)[C@@H]5[C@H](O)C[C@]43C)[C@@H]2C1` [Compound 8, terminolic acid], in experiment [1], the “IC50 ± SEM (α-glucosidase)” value was found to be 155.84 ± 0.31. In addition, in experiment [1], the “α-Glucosidase IC50” value worked out at 155.84 ± 0.31 µg/mL. Further, the half-maximal inhibitory concentration (IC50) in experiment [2] (setting [5]) is > 198 µM; in experiment [2] (setting [6]), > 198 µM; in experiment [3], 289 µM; in experiment [4] (setting [7]) it was 130 µM.
On to `COc1cc2c(=O)oc3c(OC)c(O[C@@H]4OC[C@@H](O)[C@H](O)[C@H]4O)cc4c(=O)oc(c1OC)c2c34` [Compound 2, 3,3′,4′-tri-O-methyl ellagic acid-4-O-β-D-xylopyranoside], for which the “IC50 ± SEM (α-glucosidase)” value in experiment [1] amounted to 121.51 ± 0.65. The “α-Glucosidase IC50” value in experiment [1] worked out at 121.51 ± 0.65 µg/mL. Besides, the half-maximal inhibitory concentration (IC50) in experiment [2] (setting [5]) is > 210 µM; in experiment [2] (setting [6]) it was > 210 µM; in experiment [3], 216 µM; in experiment [4] (setting [7]) it was 129 µM.
On to `CC1(C)CC[C@]2(C(=O)O[C@@H]3O[C@H](CO)[C@@H](O)[C@H](O)[C@H]3O)CC[C@]3(C)C(=CC[C@@H]4[C@@]5(C)C[C@@H](O)[C@H](O)[C@@](C)(CO)[C@@H]5[C@H](O)C[C@]43C)[C@@H]2C1` [Compound 11, chebuloside II], for which, in experiment [1], the “IC50 ± SEM (α-glucosidase)” value is listed as >200. The “α-Glucosidase IC50” value in experiment [1] is >200 µg/mL. Moreover, the IC50 in experiment [2] (setting [5]) is > 150 µM; in experiment [2] (setting [6]) it was > 150 µM; in experiment [3], > 300 µM; in experiment [3] (setting [8]), > 300 µM; in experiment [4] (setting [9]) it was > 150 µM; in experiment [4] (setting [7]), > 150 µM.
